# Data reported in publication PMC9475448, “What a difference a methylene makes: replacing Glu with Asp or Aad in the Lys-urea-Glu pharmacophore of PSMA-targeting radioligands to reduce kidney and salivary gland uptake” (Theranostics, 2022).
# Experiments:
# [1] = test system: LNCaP tumor-bearing mice; assay: Ex vivo biodistribution of 177Lu-labeled ligands in LNCaP tumor-bearing NRG mice
# [2] = test system: LNCaP tumor and major mouse organs/tissues; assay: Radiation dosimetry calculation with OLINDA software from biodistribution data; settings: 25-g mouse
# Description: The biodistribution data (available in the Supplemental Table s 5- 6) were used to determine the kinetics input values required by OLINDA. First, each of the values was decayed to its corresponding time point (the values on the table are shown at injection time). Then the different time-points of the uptake data (%IA/g) for each organ were fitted to both mono- exponential ( ) and bi-exponential ( ) functions using in-house software developed in Python. The best fit was selected based on maximizing the coefficient of determination (R2) of the fit and minimizing the residuals. The areas under the curves were analytically calculated based on the parameters obtained from the best fit of each organ and this provided the kinetic input values required by OLINDA.
# In the mouse case, the adrenals, blood, fat, and muscle are not modeled in the phantom. These organs were grouped together and included in what OLINDA calls the remainder of the body .
# Lastly, the numbers of decays in the tumors were also calculated based on the biodistribution data of the mice and the values were inputted into the sphere model available in OLINDA.
structure (smiles),measurement,setting,value
O=C([O-])CN1CCN(CC(=O)[O-])CCN(CC(=O)NCC2CCC(C(=O)NC(Cc3c4ccccc4cc4ccccc34)C(=O)NCCCCC(NC(=O)NC(CCCC(=O)O)C(=O)O)C(=O)O)CC2)CCN(CC(=O)[O-])CC1.[177Lu+3] (stereo not drawn) [[^177Lu]Lu-HTK03149],Muscle uptake,[1]; 24 h post-injection,0.017 ± 0.003 %IA/g
same,Pancreas uptake,[1]; 24 h post-injection,0.032 ± 0.005 %IA/g
same,Salivary glands uptake,[1]; 24 h post-injection,0.049 ± 0.007 %IA/g
same,Spleen uptake,[1]; 24 h post-injection,0.085 ± 0.012 %IA/g
same,Stomach uptake,[1]; 24 h post-injection,0.125 ± 0.112 %IA/g
same,Testes uptake,[1]; 24 h post-injection,0.047 ± 0.003 %IA/g
same,Thyroid uptake,[1]; 24 h post-injection,0.060 ± 0.002 %IA/g
same,Tumor uptake,[1]; 24 h post-injection,13.80 ± 2.876 %IA/g
same,Tumor:Blood uptake ratio,[1]; 24 h post-injection,120 ± 31.1
same,Tumor:Muscle uptake ratio,[1]; 24 h post-injection,842 ± 216
same,Tumor:Salivary gland uptake ratio,[1]; 24 h post-injection,286 ± 88.4
same,Adrenal glands uptake,[1]; 72 h post-injection,0.124 ± 0.052 %IA/g
same,Blood uptake,[1]; 72 h post-injection,0.067 ± 0.016 %IA/g
same,Blood:Salivary gland uptake ratio,[1]; 72 h post-injection,1.45 ± 0.69
same,Bone uptake,[1]; 72 h post-injection,0.026 ± 0.011 %IA/g
same,Brain uptake,[1]; 72 h post-injection,0.003 ± 0.002 %IA/g
same,Fat uptake,[1]; 72 h post-injection,0.042 ± 0.042 %IA/g
same,Heart uptake,[1]; 72 h post-injection,0.060 ± 0.014 %IA/g
same,Intestines uptake,[1]; 72 h post-injection,0.088 ± 0.034 %IA/g
same,Kidneys uptake,[1]; 72 h post-injection,0.679 ± 0.387 %IA/g
same,Lacrimal glands uptake,[1]; 72 h post-injection,0.006 ± 0.007 %IA/g
same,Liver uptake,[1]; 72 h post-injection,0.130 ± 0.034 %IA/g
same,Lungs uptake,[1]; 72 h post-injection,0.108 ± 0.022 %IA/g
same,Muscle uptake,[1]; 72 h post-injection,0.018 ± 0.003 %IA/g
same,Pancreas uptake,[1]; 72 h post-injection,0.033 ± 0.002 %IA/g
same,Salivary glands uptake,[1]; 72 h post-injection,0.051 ± 0.016 %IA/g
same,Stomach uptake,[1]; 72 h post-injection,0.140 ± 0.104 %IA/g
same,Testes uptake,[1]; 72 h post-injection,0.053 ± 0.008 %IA/g
same,Thyroid uptake,[1]; 72 h post-injection,0.079 ± 0.008 %IA/g
same,Tumor uptake,[1]; 72 h post-injection,17.1±4.70 %IA/g
same,Tumor:Blood uptake ratio,[1]; 72 h post-injection,258 ± 74.7
same,Tumor:Muscle uptake ratio,[1]; 72 h post-injection,985 ± 342
same,Tumor:Salivary gland uptake ratio,[1]; 72 h post-injection,349 ± 109
same,Tumor uptake,"[1]; 72 h post-injection, listed as [177Lu]Lu-HTK03149",17.12 ± 4.702 %IA/g
same,Adrenal glands uptake,[1]; 120 h post-injection,0.024 ± 0.027 %IA/g
same,Blood uptake,[1]; 120 h post-injection,0.021 ± 0.006 %IA/g
same,Blood:Salivary gland uptake ratio,[1]; 120 h post-injection,0.75 ± 0.19
same,Bone uptake,[1]; 120 h post-injection,0.015 ± 0.007 %IA/g
same,Brain uptake,[1]; 120 h post-injection,0.002 ± 0.001 %IA/g
same,Fat uptake,[1]; 120 h post-injection,0.014 ± 0.009 %IA/g
same,Heart uptake,[1]; 120 h post-injection,0.034 ± 0.014 %IA/g
same,Intestines uptake,[1]; 120 h post-injection,0.069 ± 0.046 %IA/g
same,Kidneys uptake,[1]; 120 h post-injection,0.276 ± 0.064 %IA/g
same,Lacrimal glands uptake,[1]; 120 h post-injection,0.001 ± 0.002 %IA/g
same,Liver uptake,[1]; 120 h post-injection,0.079 ± 0.041 %IA/g
same,Lungs uptake,[1]; 120 h post-injection,0.086 ± 0.076 %IA/g
same,Muscle uptake,[1]; 120 h post-injection,0.012 ± 0.004 %IA/g
same,Pancreas uptake,[1]; 120 h post-injection,0.020 ± 0.007 %IA/g
same,Salivary glands uptake,[1]; 120 h post-injection,0.029 ± 0.007 %IA/g
same,Spleen uptake,[1]; 120 h post-injection,0.129 ± 0.079 %IA/g
same,Stomach uptake,[1]; 120 h post-injection,0.084 ± 0.041 %IA/g
same,Testes uptake,[1]; 120 h post-injection,0.033 ± 0.012 %IA/g
same,Thyroid uptake,[1]; 120 h post-injection,0.044 ± 0.015 %IA/g
same,Tumor uptake,[1]; 120 h post-injection,16.39 ± 10.99 %IA/g
same,Tumor:Blood uptake ratio,[1]; 120 h post-injection,780 ± 451
same,Tumor:Muscle uptake ratio,[1]; 120 h post-injection,1336 ± 566
same,Tumor:Salivary gland uptake ratio,[1]; 120 h post-injection,533 ± 218
same,Kinetics value,[2]; source organ Brain,2.23E-03 MBq-h/MBq
same,Kinetics value,[2]; source organ Cortical bone,7.60E-02 MBq-h/MBq
same,Kinetics value,[2]; source organ Heart contents,1.94E-02 MBq-h/MBq
same,Kinetics value,[2]; source organ Kidneys,2.41E-01 MBq-h/MBq
same,Kinetics value,[2]; source organ Large intestine,9.24E-02 MBq-h/MBq
same,Kinetics value,[2]; source organ Liver,3.91E-01 MBq-h/MBq
same,Kinetics value,[2]; source organ Lungs,1.72E-02 MBq-h/MBq
same,Kinetics value,[2]; source organ Pancreas,1.79E-02 MBq-h/MBq
same,Kinetics value,[2]; source organ Remainder of the body,5.31E-01 MBq-h/MBq
same,Kinetics value,[2]; source organ Small intestine,2.76E-01 MBq-h/MBq
same,Kinetics value,[2]; source organ Spleen,2.30E-02 MBq-h/MBq
same,Kinetics value,[2]; source organ Stomach,8.07E-03 MBq-h/MBq
same,Kinetics value,[2]; source organ Testes,1.29E-02 MBq-h/MBq
same,Kinetics value,[2]; source organ Thyroid,2.03E-03 MBq-h/MBq
same,Kinetics value,[2]; source organ Urinary bladder contents,8.14E-01 MBq-h/MBq
